Laboratory results taken from the NIST ThermoML archive (doi:10.1016/j.fluid.2013.07.060).
Several values for one entry are separate records, joined by “and”; a condition that tells them apart may be missing. Equal entries are not always repeated.

Assays:
[1] = 101.33 kPa, Liquid, Capillary tube (Ostwald / Ubbelohde) method
[2] = xn = mol fraction of the nth substance listed; settings: 101 kPa, Liquid; for viscosity: Capillary tube (Ostwald / Ubbelohde) method; for mass density: Vibrating tube method

CCCCCC [hexane]
[1]
Settings | viscosity [mPa·s]
298.2 K | 0.2937
303.16 K | 0.2798
308.13 K | 0.2669

CCCCCC [hexane] + FC(F)(F)C(F)(F)C(F)(F)C(F)(F)C(F)(F)C(F)(F)F
[2], x2 = 0
Settings | mass density [kg/m3] | viscosity [mPa·s]
298 K | 655 | 0.294
303 K | – | 0.28
308 K | – | 0.267

FC(F)(F)C(F)(F)C(F)(F)C(F)(F)C(F)(F)C(F)(F)F [perfluorohexane] + CCCCCC
[2]
Settings | mass density, x1 = 0.25 [kg/m3] | mass density, x1 = 0.5 [kg/m3] | mass density, x1 = 0.75 [kg/m3] | mass density, x1 = 1 [kg/m3] | viscosity, x1 = 0.243 [mPa·s] | viscosity, x1 = 0.5 | viscosity, x1 = 0.705 [mPa·s] | viscosity, x1 = 0.727 [mPa·s] | viscosity, x1 = 0.902 [mPa·s] | viscosity, x1 = 1 [mPa·s]
298 K | 956 | 1207 | 1457 | 1672 | 0.341 | 0.408 mPa·s and 0.407 mPa·s | 0.458 | 0.468 | 0.556 | 0.635
303 K | – | – | – | – | 0.319 | 0.375 mPa·s | 0.428 | 0.438 | 0.52 | 0.589
308 K | – | – | – | – | 0.299 | 0.35 mPa·s and 0.352 mPa·s | 0.401 | 0.41 | 0.483 | 0.548
